This note sets out measurements from ChEMBL document CHEMBL4483862, “Open-source discovery of chemical leads for next-generation chemoprotective antimalarials” (2018).

Molecules are shown by their SMILES.

The assay relates to Plasmodium berghei. Nature of the assay: Luciferase/luciferin-expressing antifolate-resistant parasites were used to infect a culture of HepG2 cells that were pre-incubated with compounds. Infected hepatocytes emit light due to the luciferase reaction. Assay results are presented as the percent inhibition of light emission compared to control. […]. It is filed as functional. Conditions: sporozoite; for IC50: read-out: LUCIFERASE INFECTION ASSAY - IC50; for IC90: read-out: LUCIFERASE INFECTION ASSAY - IC90.

Usually IC50 stands for the concentration that inhibits the measured activity by half. As usually defined, the IC90 is the concentration needed for an effect of 90%. Regarding `COc1ccc(/C=C(/C(=O)c2cccs2)N2C=CC=CC2=C(C#N)C#N)cc1`, the IC50 was above 10 µM and the IC90 was above 10 µM.

With `Cc1cnc(C(=O)OCC(=O)NCCc2ccccc2)cn1`, the IC50 is above 10 µM and the IC90 was above 10 µM.

As to `Cc1nn(-c2ccccc2)c(N2CCCC2)c1/C=N/Nc1ccc(S(N)(=O)=O)cc1[N+](=O)[O-]`, the IC50 is 9.05 µM and the IC90 was above 10 µM.

With `N=C(N)N/N=C/c1ccc(N(c2ccccc2)c2ccccc2)cc1`, the IC50 was found to be 8.03 µM and the IC90 came out at 9.95 µM.

On to `C/C(=N\N1CCCCC1)c1ccccc1O`, for which the IC50 was above 10 µM and the 90% effect concentration (IC90) was above 10 µM.

For the molecule `NS(=O)(=O)c1ccc(N/N=C/c2cn(-c3ccccc3)nc2-c2cccs2)c([N+](=O)[O-])c1`, the concentration for half-maximal inhibition (IC50) was above 10 µM and the 90% effect concentration (IC90) was above 10 µM.

In the case of `C(=C(c1nc2ccccc2s1)c1nc2ccccc2s1)c1ccc(N2CCOCC2)cc1`, the IC50 amounted to 0.749 µM and the IC90 came to 3.63 µM.

In the case of `O=C(N/N=C/c1c(Cl)nc2ccccn2c1=O)c1ccc(F)cc1`, the IC50 is above 10 µM and the IC90 is above 10 µM.

In the case of `O=C(/C=C/c1cn(-c2ccccc2)nc1-c1cccnc1)Nc1nc(-c2ccccn2)cs1`, the IC50 amounted to 5.33 µM and the IC90 worked out at 8.39 µM.

Take `N#Cc1ccc(Cl)cc1/N=C/C(Br)=C/c1ccccc1`: the IC50 was above 10 µM and the IC90 is above 10 µM.

Take `Cc1ccc2nc(-c3ccc(NC(=O)COC(=O)c4ccccc4C(=O)c4ccccc4)cc3)sc2c1`: the IC50 is above 10 µM and the IC90 is above 10 µM.

`Cc1ccc(S(=O)(=O)NC(=O)c2c(C(=O)NS(=O)(=O)c3ccc(C)cc3)c(C)n(-c3ccc(N(C)C)cc3)c2C)cc1`: the half-inhibitory concentration (IC50) is above 10 µM and the IC90 is above 10 µM.

`Cc1ccc(NC(=O)/C(=N/N)c2c(-c3ccccc3)nc3ccccn23)c(Br)c1`: the IC50 is above 10 µM and the IC90 is above 10 µM.

`O=C1COc2ccc(-c3cs/c(=N\c4ccc(OC(F)F)cc4)n3Cc3ccco3)cc2N1`: the IC50 is above 10 µM and the IC90 was above 10 µM.

Take `Cc1ccc2c(c1)C1CN(C)CCC1N2C(=O)CCCOc1ccc(Cl)cc1Cl` (stereo unspecified): the IC50 was above 10 µM and the IC90 is above 10 µM.

For the molecule `O=C(Nc1cccc(S(=O)(=O)NC2=NCCCCC2)c1)c1cncc(Br)c1`, the IC50 was above 10 µM and the IC90 was above 10 µM.

Regarding `O=C(NC(=S)NN(Cc1ccccc1)c1ccccc1)C12CC3CC(CC(C3)C1)C2`, the IC50 was above 10 µM and the IC90 was above 10 µM.

As for `CN1C(=O)NC(c2ccccc2C(F)(F)F)C(C(=O)c2cccs2)C1(O)C(F)(F)F` (stereo unspecified), the half-inhibitory concentration (IC50) was above 10 µM and the 90% effect concentration (IC90) was above 10 µM.

Regarding `CC(/N=c1\ccccn1C(=O)Nc1ccc(Cl)c(Cl)c1)c1ccco1` (stereo unspecified), the IC50 amounted to 6.62 µM and the IC90 was 9.14 µM.

In the case of `C/C(=N\c1cc(C(F)(F)F)ccc1Cl)Nc1ccc(C)cc1`, the IC50 was above 10 µM and the IC90 was above 10 µM.

As to `COc1ccc(NS(=O)(=O)c2cc([N+](=O)[O-])ccc2NNC(=S)NC2CCCCC2)cc1`, the half-inhibitory concentration (IC50) is above 10 µM and the IC90 is above 10 µM.

Take `CC1CCCCC1NC(=O)/C(C#N)=C/c1ccc(OC(F)F)cc1OC(F)F` (stereo unspecified): the IC50 was above 10 µM and the IC90 was above 10 µM.

For `COC(=O)c1cc(C(=O)OC)cc(-n2c(C)cc(C(O)(C(=O)OC)C(F)(F)F)c2C)c1` (stereo unspecified), the IC50 is above 10 µM and the IC90 is above 10 µM.

Consider `Cn1c[n+](C2=C(NS(=O)(=O)c3ccc([N+](=O)[O-])cc3)C(=O)c3ccccc3C2=O)c2ccccc21`, for which the IC50 is 2.53 µM and the IC90 was found to be 5.03 µM.

Consider `Cn1/c(=N/N=C2\C(=O)N(Cc3ccccc3)c3ccccc32)sc2ccccc21`, for which the 50% inhibitory concentration (IC50) is above 10 µM and the IC90 was above 10 µM.

Take `C(=N\Nc1ncnc2sc3c(c12)CCCC3)/c1c(-c2ccccc2)n(-c2ccccc2)c2ccccc12`: the IC50 is above 10 µM and the IC90 is above 10 µM.

On to `CCN(CC)S(=O)(=O)c1ccc(N/N=C2/C=CC(=O)c3ncccc32)cc1`, for which the IC50 was above 10 µM and the IC90 is above 10 µM.

For `COc1ccc(-c2nn(-c3ccccc3)cc2C(=O)Nc2cc(C(F)(F)F)ccc2N2CCCCC2)cc1`, the IC50 is above 10 µM and the IC90 is above 10 µM.

For `CCN(CC)S(=O)(=O)c1cccc(-c2nnc(SCC(=O)N3CCc4ccccc43)n2-c2ccccc2)c1`, the concentration for half-maximal inhibition (IC50) was above 10 µM and the IC90 was above 10 µM.

Turning to `COc1ccccc1CNC(=O)c1cc(Cl)ccc1OC`, the 50% inhibitory concentration (IC50) is above 10.8 µM and the IC90 is above 10.8 µM.

As for `O=C(/C=C/c1ccc([N+](=O)[O-])s1)Nc1ccc(F)cc1F`, the IC50 stood at 8.88 µM and the IC90 is above 10 µM.

As to `Cc1c(-c2cccc(Cl)c2)nc2ccccc2c1C(=O)OCC(=O)C(C#N)=C1Nc2ccccc2N1`, the half-maximal inhibitory concentration (IC50) was above 10 µM and the IC90 is above 10 µM.

Turning to `CCOC(=O)c1cc(N/N=C(/C(=O)Nc2cccnc2)C(=O)c2ccccc2)cc(C(=O)OCC)c1`, the half-inhibitory concentration (IC50) is above 10 µM and the IC90 was above 10 µM.

As for `O=C(N/N=C/C1=C(N2CCOCC2)C(=C\c2ccccc2)/CC1)c1ccco1`, the IC50 was 2.96 µM and the IC90 was found to be 3.47 µM.

As to `COC(=O)c1cc2c(N)c(C(=O)c3cc(C#N)c(SC)nc3C)sc2nc1C`, the IC50 was found to be 5.83 µM and the IC90 was above 10 µM.

Turning to `O=C(NC(=S)NN(C(=S)NC(=O)c1ccccc1Br)c1nc2ccccc2[nH]1)c1ccccc1Br`, the IC50 is above 10 µM and the concentration for an effect of 90% (IC90) was above 10 µM.

Turning to `CCn1c2ccccc2c2cc(/C=C(\C#N)c3nnc(N4CCOCC4)n3-c3ccccc3)ccc21`, the half-maximal inhibitory concentration (IC50) is above 10 µM and the IC90 is above 10 µM.

On to `CC(C(=O)OCC(=O)Nc1ccc(Cl)c2c1C(=O)c1ccccc1C2=O)N1C(=O)c2ccccc2C1=O` (stereo unspecified), for which the IC50 was above 10 µM and the 90% effect concentration (IC90) is above 10 µM.

In the case of `Cc1cccc(NS(=O)(=O)c2cc(C(=O)OCC(=O)Nc3ccc(F)c(F)c3F)ccc2C)c1`, the IC50 was above 10 µM and the IC90 is above 10 µM.

For the molecule `CCOc1ccccc1N/C=C1/C(=O)N(Cc2ccc3c(c2)OCO3)C(=O)c2ccccc21`, the IC50 was above 10 µM and the IC90 was above 10 µM.

Regarding `Cc1nn(-c2ccccc2)c2c1C(C(F)(F)F)(C(F)(F)F)OC(c1cccc(S(=O)(=O)N3CCCCC3)c1)=N2`, the IC50 was above 10 µM and the IC90 is above 10 µM.

In the case of `CN(C)S(=O)(=O)c1cccc(NC(=O)c2ccc3c(c2Cl)C(=O)c2ccccc2C3=O)c1`, the IC50 was determined as 8.82 µM and the IC90 is above 10 µM.

With `CC(=O)n1c(Nc2ccc(F)cc2)c(Sc2ccccc2[N+](=O)[O-])c2ccccc2c1=O`, the IC50 came out at 5.95 µM and the IC90 was above 10 µM.

For the molecule `CSCCC(C(=O)Oc1c(Cl)cc(Cl)c2ccc(C)nc12)N1C(=O)c2ccccc2C1=O` (stereo unspecified), the IC50 was above 10 µM and the 90% effect concentration (IC90) was above 10 µM.

In the case of `Cc1nn(-c2ccc(Cl)cc2)c2sc(C(=O)NC(C)(C)CC(C)(C)C)cc12`, the IC50 was above 10 µM and the IC90 is above 10 µM.

With `Cc1nn(-c2ccccc2)c(Cl)c1C(=O)N1CCN(C(c2ccccc2)c2ccccc2)CC1`, the IC50 is above 10 µM and the IC90 was above 10 µM.

Regarding `Cc1cc(C=C2Sc3ccc4ccccc4c3N2C)cc(C)[n+]1Cc1cccnc1`, the IC50 was above 10 µM and the IC90 was above 10 µM.

Turning to `O=[N+]([O-])c1ccc(NN=C2CCSC2)c(S(=O)(=O)Nc2ccc(Cl)cc2)c1`, the IC50 is above 10 µM and the IC90 was above 10 µM.

Take `O=C(/C=C/c1cc([N+](=O)[O-])ccc1OC(F)F)N1CCN(C(c2ccccc2)c2ccccc2)CC1`: the IC50 is above 10 µM and the IC90 was above 10 µM.

With `NC(=O)c1c(NC(=O)/C=C/c2cn(-c3ccccc3)nc2-c2cccnc2)sc2c1CCCC2`, the 50% inhibitory concentration (IC50) is above 10 µM and the IC90 was above 10 µM.

As for `CN(C)S(=O)(=O)c1cccc(C(=O)N(Cc2ccccc2)CC(O)COC(c2ccccc2)c2ccccc2)c1` (stereo unspecified), the IC50 is above 10 µM and the IC90 is above 10 µM.

For the molecule `CCN1C/C(=C/c2ccc(NC(C)=O)cc2)C(=O)/C(=C/c2ccc(NC(C)=O)cc2)C1`, the IC50 was above 10 µM and the IC90 is above 10 µM.

As to `O=C(Nc1nc(-c2cccs2)c(C(=O)C(F)(F)F)s1)c1ccc(S(=O)(=O)N2CCCCC2)cc1`, the IC50 came to 9.17 µM and the IC90 was above 10 µM.

Take `Cc1nn2c(nc(Sc3nc4ccccc4o3)c3ccccc32)c1/C=N/NC(=O)c1cccc(S(=O)(=O)N2CCOCC2)c1`: the half-maximal inhibitory concentration (IC50) was above 10 µM and the IC90 was above 10 µM.

On to `Cc1cccn2c(=O)c(/C=N/O)c(Nc3ccc(SC(F)F)cc3)nc12`, for which the IC50 was above 10 µM and the IC90 was above 10 µM.

With `COc1cc(-c2cc(C(=O)N/N=C3/C(=O)N(CC(C)C)c4ccccc43)c3ccccc3n2)cc(OC)c1OC`, the IC50 was above 10 µM and the IC90 was above 10 µM.

`Cc1cc(=O)nc(N/N=C2/CCc3ccccc3C2)[nH]1`: the IC50 stood at 5.6 µM and the IC90 is above 10 µM.

As for `O=C1C=C/C(=N/N(Cc2ccccc2)c2ccccc2)O1`, the half-maximal inhibitory concentration (IC50) was above 10 µM and the IC90 was above 10 µM.

Take `C/C(CCc1ccc2c(c1)OCO2)=N\Nc1nc2ccccc2[nH]1`: the IC50 was above 10 µM and the IC90 is above 10 µM.

As for `O=C(Nc1ccc(C(OC(=O)c2ccccc2)(C(F)(F)F)C(F)(F)F)cc1)c1ccccc1`, the IC50 is above 10 µM and the IC90 is above 10 µM.

As to `CC12CC3CC(C1)CC(c1ccc(O)cc1)(C3)C2`, the IC50 was above 10 µM and the IC90 is above 10 µM.

Turning to `CCn1c2ccccc2c2cc(/C=C(/C(=O)c3ccccc3)c3nc4ccccc4[nH]3)ccc21`, the IC50 is 9.13 µM and the IC90 was above 10 µM.

Consider `CN(c1ccccc1)S(=O)(=O)c1cc(C(=O)c2nnc(-c3ccc(Cl)cc3)o2)ccc1Cl`, for which the 50% inhibitory concentration (IC50) was above 10 µM and the IC90 is above 10 µM.
